Results: article PMC6720259, “Phlorotannins with Potential Anti-Tyrosinase and Antioxidant Activity Isolated from the Marine Seaweed Ecklonia stolonifera” (Antioxidants, 2019)
“Also recorded” adds a separate entry of the source. Where two headings read alike, the source gives them in different places.

Columns and labels:
[1] = system: IBMX-treated cells; design: method as in PMID 19361156; details: cited from earlier work
[2] = ONOO− radical scavenging assay; details: mean ± SD of triplicates
Method: ONOO^− scavenging activity was assessed by a modified version of Kooy’s method, which monitors the production of fluorescent rhodamine 123 from non-fluorescent DHR 123 in the presence of ONOO^−. L-Penicillamine was used as a positive control.

[3] = DPPH radical scavenging activity; details: mean ± SD of triplicates
Method: DPPH radical scavenging activity was evaluated by the method described by Blois, 1958 [19] with slight modifications. L-Ascorbic acid was used as a positive control.

[4] = system: B16F10 melanoma cells; experiment: Cell viability (MTT) assay; format: cell-based, mouse; details: 6.25, 12.5, 25, 50, and 100 μM, with or without α-MSH co-treatment
Method: B16F10 mouse melanoma cells were obtained from the American Type Culture Collection (Manassas, VA, USA). Cells were cultured at 37 °C in high-glucose DMEM supplemented with 10% FBS, 100 U/mL penicillin, and 100 μg/mL streptomycin in a humidified atmosphere containing 5% CO2. The MTT assay was used to determine the cytotoxicity of 974-A, phlorofucofuroeckol-A, and eckol according to previously described methods with slight modifications. Briefly, B16F10 cells were seeded in a 96-well plate at 1 × 10^4 cells/well and incubated for 24 h in DMEM supplemented with 10% FBS. […] After 24-h incubation of the samples, the FBS-free DMEM was suctioned, and the cells were treated with an MTT solution (100 μL at 0.5 mg/mL in phosphate-buffered saline (PBS)) and incubated for 2 h. The proportion of surviving cells was determined after the medium was replaced with 100 µL of DMSO. […] The absorbance was measured at 570 nm on a microplate reader (Molecular Devices, Sunnyvale, CA, USA).

[5] = system: B16F10 melanoma cells; experiment: Melanin content assay in α-MSH-stimulated cells; format: cell-based, mouse; details: for Melanin content of α-MSH-stimulated B16F10 cells: 6.25-100 μM, α-MSH 3 μM, 24 h; for Inhibition of melanin content compared with arbutin (500 μM): compound at 100 μM, α-MSH-stimulated B16F10 cells
Method: The intracellular melanin content was determined according to a procedure described previously with minor modifications. Briefly, B16F10 cells were seeded in a 24-well plate at 1 × 10^4 cells/well and incubated for 24 h in DMEM containing 10% FBS. Cells were pretreated with various concentrations of 974-A, phlorofucofuroeckol-A, and eckol for 1 h, and then were stimulated with α-MSH (3 μM) for 24 h. The cells were washed with PBS, and were dissolved in 1 N NaOH containing 10% DMSO by being boiled at 80 °C for 30 min. The cell lysates were centrifuged at 14,000 rpm for 10 min, and the absorbance of the supernatant was measured at 405 nm on a microplate reader (Molecular Devices). The absorbance was normalized to the total protein content for the determination of the melanin content.

[6] = system: cellular tyrosinase of B16F10 cells; experiment: Cellular TYR activity assay (L-DOPA oxidase activity); format: cell-based, mouse; details: for Cellular tyrosinase activity of α-MSH-stimulated B16F10 cells: 6.25-100 μM, α-MSH 3 μM, 24 h; for Inhibition of cellular tyrosinase compared with arbutin (500 μM): compound at 100 μM, α-MSH-stimulated B16F10 cells
Method: Cellular TYR activity was measured as L-DOPA oxidase activity by a previously described method with some modifications. Cells were seeded at 1 × 10^4 cells/well in a 24-well plate, incubated for 24 h and then stimulated with α-MSH (3 μM) in the presence or absence of 974-A, phlorofucofuroeckol-A, or eckol for 24 h. After treatment, the cells were washed with cold PBS and lysed with RIPA buffer. The cell lysates were centrifuged at 12,000 rpm for 10 min, and the supernatant was used as the cellular TYR solution. The reaction mixture, which contained 80 μL of the cell lysate and 20 μL of L-DOPA (20 mM), was incubated at 37 °C for 45 min. After the incubation, dopachrome formation was measured spectrophotometrically every 10 min for 45 min at 450 nm on a microplate reader (Molecular Devices). TYR activity was calculated as a percentage of the control.

[7] = ABTS•+ radical scavenging assay; details: mean ± SD of triplicates
Source text: This assay assesses the ability of different substances to scavenge ABTS radical cations (ABTS^•+) in comparison with the positive control, Trolox. The method was developed by Re et al. 1999 [21].

[8] = molecular target: T1, mushroom tyrosinase (Agaricus bisporus, UniProt C7FF04); experiment: In vitro mushroom tyrosinase inhibitory assay (L-tyrosine and L-DOPA as substrates); format: biochemical; details: for IC50: mean ± SD of triplicates
T1 construct: purchased Sigma Aldrich
T1 sequence (C7FF04 1-392 limits assumed): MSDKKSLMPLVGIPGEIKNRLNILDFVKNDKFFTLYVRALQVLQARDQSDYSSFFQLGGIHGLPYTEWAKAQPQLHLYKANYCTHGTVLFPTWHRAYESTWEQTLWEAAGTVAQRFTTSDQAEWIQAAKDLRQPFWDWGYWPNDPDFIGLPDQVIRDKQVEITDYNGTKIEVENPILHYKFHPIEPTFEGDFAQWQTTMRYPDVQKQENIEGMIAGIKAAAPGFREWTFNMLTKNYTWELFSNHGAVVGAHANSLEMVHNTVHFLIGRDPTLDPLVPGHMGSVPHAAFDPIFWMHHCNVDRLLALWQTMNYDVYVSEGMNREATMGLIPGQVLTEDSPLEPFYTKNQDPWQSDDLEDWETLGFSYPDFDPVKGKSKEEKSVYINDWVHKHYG
Method: Mushroom tyrosinase inhibitory activity was assessed by the method described by Kang et al. 2004 [17] with slight modifications.

[9] = system: tyrosinase, TRP-1, and TRP-2 expression in B16F10 cells; experiment: Western blot analysis of melanogenic enzymes; format: cell-based, mouse; details: 12.5–50 μM, α-MSH-stimulated B16F10 cells
Method: B16F10 cells were stimulated with α-MSH in the presence or absence of compounds for the indicated times. The cells were then washed with ice-cold PBS and lysed with RIPA buffer on ice for 30 min. After centrifugation of the samples at 12,000× g for 20 min, the protein concentrations of the supernatants were determined. Aliquots of protein were resolved by sodium dodecyl sulfate-polyacrylamide gel electrophoresis (SDS-PAGE) and transferred onto a nitrocellulose membrane. The membrane was washed with Tris-buffered saline (TBS; 10 mM Tris-HCl, 150 mM NaCl, pH 7.5) supplemented with 0.05% Tween 20 (TBST), blocked with 5% skim milk (w/v) in TBST for 2 h and incubated for approximately 20 h with the primary antibodies. The immunoblots were then incubated with the appropriate secondary antibody coupled to horseradish peroxidase for 2 h, and protein levels were detected with an ECL detection kit. Densitometric analysis of data from at least three independent experiments was performed with a cooled CCD camera system and CS analyzer version 3.00 software. Fold-increases in protein expression were calculated versus normal controls. The experiments were repeated three times for each experimental condition.

[10] = molecular target: T1, mushroom tyrosinase; experiment: Kinetic analysis of mushroom tyrosinase inhibition (Lineweaver-Burk and Dixon plots); format: biochemical; details: for Ki: Dixon plot; for Type of inhibition, L-DOPA / Type of inhibition, L-Tyrosine: Lineweaver-Burk plot
Method: The inhibition mode and inhibition constant (Ki) for mushroom tyrosinase inhibition were calculated from the Lineweaver-Burk and Dixon plots. Kinetic parameters were obtained for various concentrations of the substrates (L-tyrosine and L-DOPA) and inhibitors (974-A, phlorofucofuroeckol-A and eckol). Graphs were generated with Sigma plot 12.0 (SPSS Inc., Chicago, IL, USA).

[11] = system: tyrosinase; design: method as in PMID 19490939; details: at 50 μM; cited from earlier work
[12] = system: cellular melanin and tyrosinase; design: method as in earlier work; details: previous study; cited from earlier work
[13] = system: melanin synthesis; design: method as in PMID 19490939; details: at 250 μM; cited from earlier work
[14] = substrate L-DOPA, read-out: IC50 Value, Mushroom Tyrosinase Inhibition, L-DOPA
[15] = substrate L-tyrosine, read-out: IC50 Value, Mushroom Tyrosinase Inhibition, L-Tyrosine
[16] = substrate L-DOPA, read-out: Ki Value, L-DOPA
[17] = substrate L-tyrosine, read-out: Ki Value, L-Tyrosine
[18] = IC50 Value, Mushroom Tyrosinase Inhibition, L-DOPA, substrate L-DOPA
[19] = IC50 Value, Mushroom Tyrosinase Inhibition, L-Tyrosine, substrate L-tyrosine

Molecule	IC50 [2]	IC50 [3]	Cytotoxicity towards B16F10 melanoma cells (MTT) [4]	Melanin content of α-MSH-stimulated B16F10 cells [5]	Inhibition of melanin content compared with arbutin (500 μM) [5]	Cellular tyrosinase activity of α-MSH-stimulated B16F10 cells [6]	Inhibition of cellular tyrosinase compared with arbutin (500 μM) [6]	IC50 [7]	Expression of tyrosinase, TRP-1, and TRP-2 (Western blot) [9]	Type of inhibition, L-DOPA ([10]; substrate L-DOPA)	Type of inhibition, L-Tyrosine ([10]; substrate L-tyrosine)	further results
7-phloreckol [Compound 7-phloreckol]	–	–	–	–	–	–	–	–	–	–	–	Melanin content of IBMX-treated cells [1]: significantly and dose-dependently reduced the melanin content
CC(C)(S)C(N)C(=O)O (stereo in doubt) [Penicillamine, L-penicillamine, reference compound]	1.07 ± 0.21 µM	–	–	–	–	–	–	–	–	–	–	–
O=C1O[C@H]([C@@H](O)CO)C(O)=C1O [Ascorbic acid, L-ascorbic acid, reference compound]	–	0.69 ± 0.04 µM	–	–	–	–	–	–	–	–	–	–
Oc1cc(O)cc(Oc2c(O)cc(O)c3c2oc2cc(O)c4c(c23)Oc2c(O)cc(O)c(Oc3cc(O)cc(O)c3-c3c(O)cc(O)cc3Oc3c(O)cc(O)cc3Oc3c(O)cc(O)cc3O)c2O4)c1 [Compound 974-A, 974-A]	0.26 ± 0.06 µM	0.92 ± 0.11 µM	none of them exhibited significant cytotoxicity up to 100 μM	reduced the cellular melanin content	comparable to arbutin	reduced the cellular melanin content and tyrosinase activity	as active	6.29 ± 0.34 µM	downregulated the expression of melanogenesis enzymes; also recorded: dose-dependently attenuated the expression of tyrosinase, TRP-1, and TRP-2	Competitive	Competitive	IC50 [8, 14]: 3.56 ± 0.22 µM; IC50 [8, 15]: 1.57 ± 0.08 µM; Ki [10, 16]: 3.33 µM; Ki [10, 17]: 0.69 µM
Oc1cc(O)cc(Oc2c(O)cc(O)c3c2Oc2c(O)cc(Oc4c(O)cc(Oc5c(O)cc(O)c6c5Oc5c(O)cc(O)cc5O6)cc4O)cc2O3)c1 [Dieckol]	–	–	–	–	–	–	–	–	–	–	–	Tyrosinase inhibitory activity [11]: 88.9%
Oc1cc(O)cc(Oc2c(O)cc(O)c3c2Oc2c(O)cc(O)cc2O3)c1 [Eckol, eckol]	0.73 ± 0.07 µM	1.63 ± 0.65 µM	none of them exhibited significant cytotoxicity up to 100 μM	reduced the cellular melanin content	more effective than arbutin	reduced the cellular melanin content and tyrosinase activity	as active	5.01 ± 0.19 µM	downregulated the expression of melanogenesis enzymes; also recorded: dose-dependently attenuated the expression of TYR, TRP-1, and TRP-2	Non-competitive	Non-competitive	Melanin levels and tyrosinase at a cellular level [12]: dose-dependently reduce melanin levels and inhibit tyrosinase at a cellular level; IC50 [8, 18]: 29.6 ± 0.48 µM; IC50 [8, 19]: 9.12 ± 0.36 µM; Ki [10, 16]: 28.5 µM; Type of inhibition, L-DOPA ([10]; substrate L-DOPA, listed as eckol): non-competitive; Ki [10, 17]: 8.6 µM; Type of inhibition, L-Tyrosine ([10]; substrate L-tyrosine, listed as eckol): non-competitive
Oc1cc(O)cc(Oc2c(O)cc(O)c3c2Oc2c(O)cc4oc5c(Oc6cc(O)cc(O)c6)c(O)cc(O)c5c4c2O3)c1 [Phlorofucofuroeckol-A, phlorofucofuroeckol-A]	0.85 ± 0.1 µM	1.92 ± 0.09 µM	none of them exhibited significant cytotoxicity up to 100 μM	reduced the cellular melanin content	comparable to arbutin	reduced the cellular melanin content and tyrosinase activity	more potent	12.9 ± 0.95 µM	downregulated the expression of melanogenesis enzymes; also recorded: dose-dependently attenuated the expression of TYR, TRP-1, and TRP-2	Non-competitive	Non-competitive	IC50 [8, 18]: 8.14 ± 0.29 µM; IC50 [8, 19]: 3.42 ± 0.01 µM; Ki ([10]; Ki Value, L-DOPA, substrate L-DOPA): 7.14 µM; Ki ([10]; Ki Value, L-Tyrosine, substrate L-tyrosine): 2.7 µM; Type of inhibition, L-DOPA ([10]; substrate L-DOPA, listed as phlorofucofuroeckol-A): non-competitive; Type of inhibition, L-Tyrosine ([10]; substrate L-tyrosine, listed as phlorofucofuroeckol-A): non-competitive
Oc1cc(O)cc(O)c1 [Phloroglucinol, phloroglucinol]	1.72 ± 0.59 µM	> 100 µM	–	–	–	–	–	31.5 ± 1.68 µM	–	–	–	Inhibition of mushroom tyrosinase, either substrate (in words) ([8]; L-tyrosine and L-DOPA): No significant inhibition; IC50 [8, 14]: > 400 µM; IC50 [8, 15]: 251 ± 5.52 µM
Cc1c(C)c2c(c(C)c1O)CCC(C)(C(=O)O)O2 (centres unmarked) [Trolox, reference compound]	–	–	–	–	–	–	–	18.4 ± 0.7 µM	–	–	–	–
CC1=C(/C=C/C(C)=C/C=C/C(C)=C/CO)C(C)(C)CCC1 [retinol]	–	–	–	–	–	–	–	–	–	–	–	Inhibition of melanin synthesis [13]: 75.3%
